According to US6531485B2, “Prostaglandin agonists” (priority 1997, dated 2003):

Key:
[1] = tested on: wild type 293S cells; test: Kidney regeneration assay: BMP-7 expression by Northern blot in wild type 293S cells; format: cell-based, human; settings: parental 293S cell line, 10^-6M, RNA at 8, 16 and 24 hours
Protocol: (§1) Methods: 293S and EP2 293S cells are grown in Dulbecco's Modified Egale medium (DMEM, Gibco, BRL; Gaithersburg, Md.). […] Cells are harvested and RNA is extracted at 8, 16 and 24 hours. Northern blot analysis of total […] is carried out by probing the blots with ^32P-labeled BMP-7 probe. The blots are normalized for RNA loading by hybridization with ^32P-labeled 18s ribosomal RNA probe. […] Given the known role of BMP-7 in kidney regeneration and the ability of an prostaglandin agonist to induce BMP-7 expression in 293S kidney cells in a time and receptor specific manner indicates a role for prostaglandin agonist in kidney regeneration.

[2] = tested on: 293S cells transfected with EP2; test: Kidney regeneration assay: BMP-7 expression by Northern blot in EP2 293S cells; format: cell-based, human; settings: 10^-6M, RNA at 8, 16 and 24 hours
Protocol: as §1

CCCCC[C@H](O)/C=C/[C@H]1[C@H](O)CC(=O)[C@@H]1C/C=C\CCCC(=O)O [PGE2, Prostaglandin E2]
induction of expression of BMP-7 [1]: generally not observed | induction of expression of BMP-7 [2]: induce the expression of BMP-7 in the EP2 293S cells in a time dependent manner
